Read-outs that look alike come from different tables or passages of the source.
Key:
[1] = test system: human gastric carcinoma MGC803; experiment: In-vivo antitumor activity test in human gastric carcinoma MGC803 (subcutaneous tumor block in nude mice); design: species or system BALB/C nude mice; details: for RTV (d22) / Body weight of animals (After a tumor is removed) / Tumor inhibition rate %: MGC803; for Body weight of animals (After a tumor is removed) / Tumor inhibition rate %: d22
Experimental: (§1) Animals: BALB/C nude mice (SPF grade), male, and 18-20 g. The compounds were firstly added with DMSO at a total amount of 4%, then added with Tween-80 at a total amount of 2% for assisting dissolution, then added with PEG300 at a total amount of 5%, and finally added with sterilized normal saline to be prepared into a solution at 1 mg/mL. Idasanutlin was firstly added with DMSO at a total amount of 4%, then added with Tween-80 at a total amount of 2% for assisting dissolution, then added with PEG300 at a total amount of 5%, and finally added with sterilized normal saline to be prepared into a solution at 2.5 mg/mL.
(§2) A well-grown human gastric carcinoma MGC803 tumor mass was taken and aseptically cut into uniform small blocks of about 3 mm in size, and a right axilla of each mouse was subcutaneously inoculated with one block through a trocar. […] The animals were regrouped according to a tumor size. The animals with too large and too small tumors were sifted out. An average tumor volume in each group was approximately the same. An administration was started according to the following solution with an administration volume of 0.2 mL/20 g body weight. A long diameter a (mm) of the tumor and a short diameter b (mm) vertical to the tumor were measured by a digital display electronic caliper 2 times a week from day 9 of the inoculation. A tumor volume was calculated by the formula: TV=ab^2/2, and a relative tumor volume was calculated by the formula: RTV=Vt/Vo, wherein Vo was the obtained tumor volume measured at a cage separation (i.e. d1) and Vt was the tumor volume measured at each time. The animals were sacrificed 30 days after the inoculation (d22) and weighed, tumor mass was obtained by dissection and weighed, and the results were determined according to the following formula: […]

[2] = test system: human esophageal cancer KYSE-150; experiment: In-vivo antitumor activity test in human esophageal cancer KYSE-150 (subcutaneous tumor block in nude mice); design: species or system BALB/C nude mice; details: for RTV (d22) / Body weight of animals (After a tumor is removed) / Tumor inhibition rate %: KYSE-150; for Body weight of animals (After a tumor is removed) / Tumor inhibition rate %: d22
Experimental: as §1
as §2, with “esophageal cancer KYSE-150” for “gastric carcinoma MGC803”

[3] = test system: SW1990 (human pancreatic carcinoma cells); experiment: Tumor cell proliferation inhibition test, CCK-8 method (Example 19); assay type: cell-based
Experimental: (§3) A part of the compounds prepared in the examples of the present disclosure were subjected to a tumor cell proliferation inhibition test by using a CCK-8 method. A cell line HCT116 (human colon carcinoma cells) and SW1990 (human pancreatic carcinoma cells) were purchased from Shanghai Meixuan Technology Co., Ltd. Samples (a part of the compounds prepared in the examples) were dissolved in DMSO (Merck), prepared into a concentration of 10 mM, and finally triply diluted in DMEM or McCoy's 5A 1640 medium to 8 concentration gradients. A cell culture solution was collected when a cell culture met a test requirement, 10 μL of the cell culture solution was uniformly coated on a cell counting plate, cells were counted for 3 times under a microscope, and a cell density was calculated by taking an average value; and a 96-well plate (Corning, #3599) was taken, 200 μL of the cell culture solution was added into each well for cell inoculation at a cell concentration of 6×10^3 cells per well, and the inoculated 96-well plate was incubated in a cell incubator containing 5% CO2 at 37° C. for 24 h. An old culture medium was removed by suction, 200 μL of the triply diluted sample DMEM or McCoy's 5A 1640 medium at an initial concentration of 10 μmol/L was added to each well, the DMSO content was controlled to be 1%, three duplicate wells were set, PBS was used as a blank control, and the plate was incubated in the incubator for 72 h. The original DMEM or McCoy's 5A 1640 medium in the 96-well plate and a PBS buffer in a final row were sucked out, a prepared CCK-8 solution (90% DMEM or McCoy's 5A 1640 medium+10% CCK-8) was added, the mixture was incubated in an incubator, and an absorbance was read by using a Biotek microplate reader. Cell growth inhibition rate IC %=(blank control well OD value−administration well OD value)/blank control well OD value×100%.

[4] = test system: HCT116 (human colon carcinoma cells); experiment: as above; assay type: cell-based
Experimental: as §3

[5] = In-vivo antitumor activity test in human stromal tumor SHG44 (subcutaneous tumor block in nude mice); design: species or system BALB/C nude mice; details: for RTV (d22) / Tumor inhibition rate % / Body weight of animals (After a tumor is removed): SHG44; for Tumor inhibition rate % / Body weight of animals (After a tumor is removed): d22; for Body weight of animals (After a tumor is removed): in g (unit assumed)
Experimental: as §1
A well-grown human stromal tumor SHG44 mass was taken and aseptically cut into uniform small blocks of about 3 mm in size, and a right axilla of each mouse was subcutaneously inoculated with one block through a trocar. […] The animals were regrouped according to a tumor size. The animals with too large and too small tumors were sifted out. An average tumor volume in each group was approximately the same. An administration was started according to the following solution with an administration volume of 0.2 mL/20 g body weight. A long diameter a (mm) of the tumor and a short diameter b (mm) vertical to the tumor were measured by a digital display electronic caliper 2 times a week from day 9 of the inoculation. A tumor volume was calculated by the formula: TV=ab^2/2, and a relative tumor volume was calculated by the formula: RTV=Vt/Vo, wherein Vo was the obtained tumor volume measured at a cage separation (i.e. d1) and Vt was the tumor volume measured at each time. The animals were sacrificed 30 days after the inoculation (d22) and weighed, tumor mass was obtained by dissection and weighed, and the results were determined according to the following formula: […]

[6] = 10 mg/kg, Ipx5 each week for 2 continuous weeks

In the case of `COc1cc(C(=O)NCCOCCOCCOCCOCCC(=O)N[C@@H](C(=O)N[C@@H](CCCNC(N)=O)C(=O)Nc2ccc(COC(=O)N3CCN(C(=O)O[C@H]4CC[C@@]5(C)[C@H](CC[C@@H]6[C@@H]5[C@H](O)C(=O)[C@]5(C)[C@@H](c7ccc(=O)oc7)CC[C@]65O)C4)CC3)cc2)C(C)C)ccc1NC(=O)[C@@H]1N[C@@H](CC(C)(C)C)[C@](C#N)(c2ccc(Cl)cc2F)[C@H]1c1cccc(Cl)c1F` [Compound I-1], the “in-vivo antitumor activity of the human gastric carcinoma MGC803 (in words)” value [1] is reported as “good in-vivo antitumor activity”, the “RTV (d22)” value [1, 6] is reported as 2.45 ± 0.54 and the “Body weight of animals (After a tumor is removed)” value (shortened to “Body weight of animals”) [1, 6] is reported as 26.15 ± 1.14. The “Tumor inhibition rate %” value [1, 6] was 38.54%, the “in-vivo antitumor activity of the human esophageal cancer KYSE-150 (in words)” value [2] was “good in-vivo antitumor activity” and the “RTV (d22)” value [2, 6] was 4.87 ± 0.92. The “Body weight of animals” value [2, 6] was 24.51 ± 1.40, the “Tumor inhibition rate %” value [2, 6] was 50.45% and the IC50 ([3]; 72 h) was 7 nM. For the same compound, the IC50 ([4]; 72 h) was 34 nM, the “in-vivo antitumor activity of the human stromal tumor SHG44 (in words)” value [5] was “good in-vivo antitumor activity” and the “RTV (d22)” value [5, 6] was 2.34 ± 0.32. The “Tumor inhibition rate %” value [5, 6] was 52.03% and the “Body weight of animals” value [5, 6] was 24.78 ± 2.38.

In the case of `COc1cc(C(=O)O)ccc1NC(=O)[C@@H]1N[C@@H](CC(C)(C)C)[C@](C#N)(c2ccc(Cl)cc2F)[C@H]1c1cccc(Cl)c1F` [Idasanutlin, reference compound], the “RTV (d22)” value ([1]; 25 mg/kg, Igx14) is reported as 2.74 ± 0.81, the “Body weight of animals” value ([1]; 25 mg/kg, Igx14) is reported as 23.58 ± 1.56 and the “Tumor inhibition rate %” value ([1]; 25 mg/kg, Igx14) is reported as 31.36%. The “RTV (d22)” value ([2]; 25 mg/kg, Igx14) was 4.79 ± 0.41, the “Body weight of animals” value ([2]; 25 mg/kg, Igx14) was 24.03 ± 0.95 and the “Tumor inhibition rate %” value ([2]; 25 mg/kg, Igx14) was 51.17%. For the same compound, the IC50 ([3]; Homo sapiens, SW1990, CCK-8, 72 h, Table 1, read-out: IC50 SW1990) was 2980 nM, the IC50 ([4]; Homo sapiens, HCT-116, CCK-8, 72 h, Table 1, read-out: IC50 HCT116) was 1060 nM and the “RTV (d22)” value ([5]; 25 mg/kg, Igx14) was 2.95 ± 0.41. The “Tumor inhibition rate %” value ([5]; 25 mg/kg, Igx14) was 39.59% and the “Body weight of animals” value ([5]; 25 mg/kg, Igx14) was 24.47 ± 1.66.

Reference: US20240024494A1, “SMALL-MOLECULE CONJUGATE AND USE THEREOF” (SHANGHAI MEWSGEN BIOTECHNOLOGY CO., LTD, priority 2020, published 2024)
